# Source: patent US20150080438A1, “6,7-Dihydro-5H-benzo[7]annulene derivatives, processes for their preparation, pharmaceutical products comprising them and their use for preparing medicaments” (Bayer Intellectual Property GmbH, priority 2011, published 2015)
# Biological target: T1, oestrogen receptor (ER) (Homo sapiens, UniProt P03372)
# T1 construct: These MVLN cells express, along with the functional oestrogen receptor (ER), a reporter construct; endogenous in cells; host or cells: MVLN cells (MCF7 derivative with ER-responsive luciferase reporter)
# T1 sequence (P03372 1-595): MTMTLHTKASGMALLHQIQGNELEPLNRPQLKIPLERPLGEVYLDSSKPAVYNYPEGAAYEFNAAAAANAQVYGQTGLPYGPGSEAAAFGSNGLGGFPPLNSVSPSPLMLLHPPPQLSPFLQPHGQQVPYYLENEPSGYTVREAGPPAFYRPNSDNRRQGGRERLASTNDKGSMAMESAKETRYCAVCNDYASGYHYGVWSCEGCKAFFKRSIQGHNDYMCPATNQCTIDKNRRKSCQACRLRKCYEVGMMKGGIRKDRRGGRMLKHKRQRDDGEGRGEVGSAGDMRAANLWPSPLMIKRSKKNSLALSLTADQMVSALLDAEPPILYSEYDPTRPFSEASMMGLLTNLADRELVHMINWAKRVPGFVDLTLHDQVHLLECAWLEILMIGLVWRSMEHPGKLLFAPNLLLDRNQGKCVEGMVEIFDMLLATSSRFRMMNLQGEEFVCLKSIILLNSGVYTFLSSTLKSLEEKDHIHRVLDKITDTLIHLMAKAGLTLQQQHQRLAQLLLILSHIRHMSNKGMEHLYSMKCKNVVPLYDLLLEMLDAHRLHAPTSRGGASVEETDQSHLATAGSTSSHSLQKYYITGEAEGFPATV
# Assay: Anti-oestrogenic action in MVLN cells (inhibition of estradiol-induced luciferase, transactivation antagonism)
# Type: cell-based
# Conditions: inhibition of estradiol-induced luciferase activity, read-out: Anti-oestrogenic action in vitro: MVLN transactivation antagonism IC50
# Outline: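 MCF7-derived MVLN cells carrying an ER-driven luciferase reporter; test compounds applied with estradiol, and anti-oestrogenic action scored as inhibition of the estradiol-induced luciferase signal.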
row,Compound,IC50
1,"CN(CCCCCCC1=C(c2cccc(O)c2)CCCc2cc(O)ccc21)CCCCS(=O)(=O)CCCC(F)(F)C(F)(F)F [Example 15, 8-(3-Hydroxyphenyl)-9-[6-(methyl{4-[(4,4,5,5,5-pentafluoropentyl)sulphonyl]butyl}amino)hexyl]-6,7-dihydro-5H-benzo[7]annulen-3-ol]",3 nM
2,"CN(CCCCCCC1=C(c2ccccc2)CCCc2cc(O)ccc21)CCCS(=O)(=O)CCCC(F)(F)C(F)(F)F [Example 63, 9-[6-(Methyl{3-[(4,4,5,5,5-pentafluoropentyl)sulphonyl]propyl}amino)hexyl]-8-phenyl-6,7-dihydro-5H-benzo[7]annulen-3-ol]",9 nM
3,"CN(CCCCCCC1=C(c2ccc(F)c(O)c2)CCCc2cc(O)ccc21)CCCCS(=O)(=O)CCC(F)(F)F [Example 110, 8-(4-Fluoro-3-hydroxyphenyl)-9-[6-(methyl{4-[(3,3,3-trifluoropropyl)sulphonyl]butyl}amino)hexyl]-6,7-dihydro-5H-benzo[7]annulen-3-ol]",5 nM
4,"O=S(=O)(CCCN(CCO)CCCCCCC1=C(c2cccc(O)c2)CCCc2cc(O)ccc21)CCC(F)(F)F [Example 98, 9-{6-[(2-Hydroxyethyl){3-[(3,3,3-trifluoropropyl)sulphonyl]propyl}amino]hexyl}-8-(3-hydroxyphenyl)-6,7-dihydro-5H-benzo[7]annulen-3-ol]",3 nM
5,"CN(CCCCCCC1=C(c2ccccc2)CCCc2cc(O)ccc21)CCCS(=O)(=O)CCCC(F)(F)F [Example 57, 9-[6-(Methyl{3-[(4,4,4-trifluorobutyl)sulphonyl]propyl}amino)hexyl]-8-phenyl-6,7-dihydro-5H-benzo[7]annulen-3-ol]",5 nM
6,"CC(C)(O)CN(CCCCCCC1=C(c2cccc(O)c2)CCCc2cc(O)ccc21)CCCS(=O)(=O)CCC(F)(F)F [Example 100, 9-{6-[(2-Hydroxy-2-methylpropyl){3-[(3,3,3-trifluoropropyl)sulphonyl]propyl}amino]hexyl}-8-(3-hydroxyphenyl)-6,7-dihydro-5H-benzo[7]annulen-3-ol]",3 nM
7,"CN(CCCCCCC1=C(c2cccc(O)c2)CCCc2cc(O)ccc21)CCCCCS(=O)(=O)CCCC(F)(F)C(F)(F)F [Example 17, 8-(3-Hydroxyphenyl)-9-[6-(methyl{5-[(4,4,5,5,5-pentafluoropentyl)sulphonyl]pentyl}amino)hexyl]-6,7-dihydro-5H-benzo[7]annulen-3-ol]",4 nM
8,"CN(CCCCCCC1=C(c2ccccc2)CCCc2cc(O)ccc21)CCC[S+]([O-])CCC(F)(F)F (racemic) [Example 59, 9-[6-(Methyl{3-[(RS)-(3,3,3-trifluoropropyl)sulphinyl]propyl}amino)hexyl]-8-phenyl-6,7-dihydro-5H-benzo[7]annulen-3-ol]",10 nM

# The remaining lines, values ahead:
row,IC50,Compound
1,2 nM,"COCCN(CCCCCCC1=C(c2ccc(F)c(O)c2)CCCc2cc(O)c(F)cc21)CCC[S+]([O-])CCCC(F)(F)C(F)(F)F (racemic) [Example 131, 2-Fluoro-8-(4-fluoro-3-hydroxyphenyl)-9-{6-[(2-methoxyethyl){3-[(RS)-(4,4,5,5,5-pentafluoropentyl)sulphinyl]propyl}amino]hexyl}-6,7-dihydro-5H-benzo[7]annulen-3-ol]"
2,6 nM,"CN(CCCCCCC1=C(c2ccc(F)c(O)c2)CCCc2cc(O)c(F)cc21)CCCS(=O)(=O)CCCC(F)(F)F [Example 127, 2-Fluoro-8-(4-fluoro-3-hydroxyphenyl)-9-[6-(methyl{3-[(4,4,4-trifluorobutyl)sulphonyl]propyl}amino)hexyl]-6,7-dihydro-5H-benzo[7]annulen-3-ol]"
3,27 nM,"CN(CCCCCC1=C(c2cccnc2)CCCc2cc(O)ccc21)CCC[S+]([O-])CCCC(F)(F)C(F)(F)F (racemic) [Example 40, 9-[5-(Methyl{3-[(RS)-(4,4,5,5,5-pentafluoropentyl)sulphinyl]propyl}amino)pentyl]-8-(3-pyridyl)-6,7-dihydro-5H-benzo[7]annulen-3-ol]"
4,8 nM,"CN(CCCCCC1=C(c2cccc(O)c2)CCCc2cc(O)ccc21)CCCCC[S+]([O-])CCCC(F)(F)C(F)(F)F (racemic) [Example 8, 8-(3-Hydroxyphenyl)-9-[5-(methyl{5-[(RS)-(4,4,5,5,5-pentafluoropentyl)sulphinyl]pentyl}amino)pentyl]-6,7-dihydro-5H-benzo[7]annulen-3-ol]"
5,1 nM,"COCCN(CCCCCCC1=C(c2cccc(O)c2)CCCc2cc(O)ccc21)CCCS(=O)(=O)CCCC(F)(F)C(F)(F)F [Example 106, 8-(3-Hydroxyphenyl)-9-{6-[(2-methoxyethyl){3-[(4,4,5,5,5-pentafluoropentyl)sulphonyl]propyl}amino]hexyl}-6,7-dihydro-5H-benzo[7]annulen-3-ol]"
6,25 nM,"CN(CCCCCCC1=C(c2ccccc2)CCCc2c1ccc(O)c2Cl)CCC[S+]([O-])CCCC(F)(F)C(F)(F)F (racemic) [Example 104, 4-Chloro-9-[6-(methyl{3-[(RS)-(4,4,5,5,5-pentafluoropentyl)sulphinyl]propyl}amino)hexyl]-8-phenyl-6,7-dihydro-5H-benzo[7]annulen-3-ol]"
7,7 nM,"[O-][S+](CCCN(CCO)CCCCCCC1=C(c2cccc(O)c2)CCCc2cc(O)ccc21)CCC(F)(F)F (racemic) [Example 95, 9-{6-[(2-Hydroxyethyl){3-[(RS)-(3,3,3-trifluoropropyl)sulphinyl]propyl}amino]hexyl}-8-(3-hydroxyphenyl)-6,7-dihydro-5H-benzo[7]annulen-3-ol]"
8,7 nM,"CN(CCCCCCC1=C(c2ccc(F)c(O)c2)CCCc2c1ccc(O)c2F)CCCCS(=O)(=O)CCC(F)(F)F [Example 119, 4-Fluoro-8-(4-fluoro-3-hydroxyphenyl)-9-[6-(methyl{4-[(3,3,3-trifluoropropyl)sulphonyl]butyl}amino)hexyl]-6,7-dihydro-5H-benzo[7]annulen-3-ol]"
9,2 nM,"CC(C)(O)CN(CCCCCCC1=C(c2cccc(O)c2)CCCc2cc(O)ccc21)CCC[S+]([O-])CCCC(F)(F)C(F)(F)F (racemic) [Example 89, 9-{6-[(2-Hydroxy-2-methylpropyl){3-[(RS)-(4,4,5,5,5-pentafluoropentyl)sulphinyl]propyl}amino]hexyl}-8-(3-hydroxyphenyl)-6,7-dihydro-5H-benzo[7]annulen-3-ol]"
10,2 nM,"CN(CCCCCCC1=C(c2cccc(O)c2)CCCc2cc(O)ccc21)CCCCC[S+]([O-])CCCC(F)(F)C(F)(F)F (racemic) [Example 16, 8-(3-Hydroxyphenyl)-9-[6-(methyl{5-[(RS)-(4,4,5,5,5-pentafluoropentyl)sulphinyl]pentyl}amino)hexyl]-6,7-dihydro-5H-benzo[7]annulen-3-ol]"
11,2 nM,"COCCCN(CCCCCCC1=C(c2cccc(O)c2)CCCc2cc(O)ccc21)CCC[S+]([O-])CCCC(F)(F)C(F)(F)F (racemic) [Example 108, 8-(3-Hydroxyphenyl)-9-{6-[(3-methoxypropyl){3-[(RS)-(4,4,5,5,5-pentafluoropentyl)sulphinyl]propyl}amino]hexyl}-6,7-dihydro-5H-benzo[7]annulen-3-ol]"
12,4 nM,"[O-][S+](CCCN(CCCO)CCCCCCC1=C(c2ccccc2)CCCc2cc(O)ccc21)CCCC(F)(F)C(F)(F)F (racemic) [Example 72, 9-{6-[(3-Hydroxypropyl){3-[(RS)-(4,4,5,5,5-pentafluoropentyl)sulphinyl]propyl}amino]hexyl}-8-phenyl-6,7-dihydro-5H-benzo[7]annulen-3-ol]"
